These results are taken from patent US10047083B2, “Dihydropyrimidinoisoquinolinones and pharmaceutical compositions thereof for the treatment of inflammatory disorders” (GALAPAGOS NV, priority 2011, dated 2018).

The target of test [1] is T1, GPR84 (Homo sapiens, UniProt Q9NQS5).
T1 construct: expressed in transfected cells; membranes used
Kind of test: GTPγS binding assay (GPR84). The test is classed as biochemical. Conditions: membranes from stable cell line over expressing GPR84; 3,3′ di indolylmethane at EC80. In short, it runs like this:
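Membranes (20 μg/well) from a stable GPR84-overexpressing line, pre-incubated with 0.1 μM GDP for 15 min at 4° C, mixed with 0.1 nM [35S]GTPγS and WGA SpA beads in 20 mM HEPES pH 7.4, 5 mM MgCl2, 250 mM NaCl, 0.05% BSA, 75 ug/mL saponin; 90 min at room temperature, then scintillation counting.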

Test [2] concerns human neutrophils. As to the kind of experiment: Human neutrophil migration assay (embelin-induced). In kind it is cell-based. The conditions noted are these: neutrophils from human buffy coat, 30 min compound pre-incubation, migration towards embelin at EC80 for 1 h, ATPlite readout, read-out: human neutrophil migration inhibition (Neutrophils). The method, then:
2. Cellular Assays 2.1. Human Neutrophil Migration Assay
The effect of agonists or antagonists for GPR84 can therefore be assayed in a neutrophil migration test. In the neutrophil migration assay, neutrophils, freshly isolated from buffy coats from human volunteers, are treated with a compound for 30 minutes. Subsequently, the neutrophils are transferred to the upper wells of a Corning HTS transwell 96 permeable support system, of which the lower wells are filled with a embelin solution at EC80 (concentration which gives 80% of the activity of GPR84). After 1 h of incubation, migration of the neutrophils towards embelin in the lower compartment can be quantified by measuring the ATP-content of the lower wells using the ATPlite luminescence ATP detection assay system (Perkin Elmer, Cat. No.: 436110).
A human buffy coat is diluted with an equal volume of ice cold DPBS. 20 mL of the diluted buffy coat is gently mixed with 4 mL of ACD buffer (140 mM citric acid, 200 mM sodium citrate and 220 mM dextrose). Then, 12 mL of the 6% dextran/0.9% NaCl solution (15 g dextran T2000 and 2.25 g NaCl dissolved in 250 mL H2O) is added to the mixture and the samples are inverted gently up to 20 times. The total volume was transferred to a new recipient and incubated at room temperature for 1 h for complete separation of the two phases to occur. The yellowish supernatant is then transferred to a clean centrifugation tube and centrifuged for 12 minutes at 1300 rpm and 4° C. After centrifugation, the supernatant is discarded and the remaining cell pellet is rapidly resuspended in 12 mL of ice-cold H2O for red blood cell lysis to occur. After 20 seconds, 4 mL of ice-cold 0.6 M KCl is added. Samples are mixed carefully and centrifuged for 6 minutes at 1300 rpm, 4° C. The supernatant is discarded and the red blood cell lysis procedure is repeated one more time. Subsequently, the cell pellet is resuspended in 4 mL of DPBS and layered over 5 mL of Lymphoprep (Nycomed Pharma, Cat. No.: 1114545) in a 15 mL centrifuge tube. After centrifugation for 12 min at 1300 rpm, 4° C., the supernatant is removed and the cell pellet, containing the neutrophils, is resuspended in 25 mL chemotaxis buffer (RPMI 1640 medium, supplemented with 10 mM HEPES; freshly made for each experiment)
A cell suspension of 8.9×10^6 cells per milliliter is prepared. 20 μL of compound solution in chemotaxis buffer is added to 180 μL cell suspension. The mixture is incubated at 37° C. for 30 minutes with intermediate resuspension of the cells after 15 minutes. Following this, 70 μL cell suspension is transferred to the upper compartment of a Corning HTS transwell 96 permeable support system with 5.0 μm pore size polycarbonate membrane (Corning, Cat. No.: 3387). The receiver well of the transwell system is then filled with 200 μL chemotaxis buffer containing compound and chemotactic agent (embelin). After incubation at 37° C. in 5% CO2 for 1 h, the upper plate of the transwell system is removed and the cell suspension in the receiver plate is transferred to a 96-well V-bottom plate. 50 μL of DPBS is added to the receiver plate to prevent remaining cells from drying out. The V-bottom plate is centrifuged for 6 minutes at 1500 rpm. The supernatant is removed and the cells are resuspended in 50 μL DPBS. The cells are then transferred back to the receiver plate of the transwell system. After this, 100 μL ATPlite solution (Perkin Elmer, Cat. No: 436110) was added to the cells. The plate is incubated for 10 minutes in the dark, while shaking. […] of cell lysate is then transferred to a white 96-well plate and luminescence is measured. The detected luminescent signal is considered as linearely related to the number of cells having migrated from the upper well to the receiver well.

T1 sequence (Q9NQS5 whole entry): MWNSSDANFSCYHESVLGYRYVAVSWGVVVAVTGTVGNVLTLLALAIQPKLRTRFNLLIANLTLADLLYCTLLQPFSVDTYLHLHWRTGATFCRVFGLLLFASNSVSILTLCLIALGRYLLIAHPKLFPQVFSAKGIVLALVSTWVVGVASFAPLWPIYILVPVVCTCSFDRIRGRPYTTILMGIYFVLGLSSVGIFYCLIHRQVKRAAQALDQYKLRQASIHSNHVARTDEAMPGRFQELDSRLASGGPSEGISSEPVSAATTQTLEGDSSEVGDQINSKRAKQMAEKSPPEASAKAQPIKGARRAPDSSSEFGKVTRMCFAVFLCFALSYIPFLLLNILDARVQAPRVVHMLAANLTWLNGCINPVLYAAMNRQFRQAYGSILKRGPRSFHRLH

As to `O=c1nc(OCC2COCCO2)cc2n1CCc1cc(-c3ccc(N4CCOCC4)nc3)ccc1-2` (centres unmarked) [Compound 62, 2-([1,4]dioxan-2-ylmethoxy)-9-(6-morpholin-4-yl-pyridin-3-yl)-6,7-dihydro-pyrimido[6,1-a]isoquinolin-4-one], the IC50 in test [1] and in test [2] was 0.01 to 100 nM in each case.
Regarding `COc1cccc(-c2ccc3c(c2)CCn2c-3cc(OCC3COCCO3)nc2=O)c1OC` (centres unmarked) [Compound 63, 9-(2,3-dimethoxy-phenyl)-2-([1,4]dioxan-2-ylmethoxy)-6,7-dihydro-pyrimido[6,1-a]isoquinolin-4-one], the IC50 in test [1] was in the range of 101 to 500 nM; in test [2] it was 0.01 to 100 nM.
As to `O=c1nc(OCC2COCCO2)cc2n1CCc1cc(-c3ccc(N4CCCCC4)nc3)ccc1-2` (centres unmarked) [Compound 68, 2-([1,4]dioxan-2-ylmethoxy)-9-(3,4,5,6-tetrahydro-2H-[1,2′]bipyridinyl-5′-yl)-6,7-dihydro-pyrimido[6,1-a]isoquinolin-4-one], the IC50 in test [1] and in test [2] was 0.01 to 100 nM throughout.
Regarding `CCOc1ncccc1-c1ccc2c(c1)CCn1c-2cc(OCC2COCCO2)nc1=O` (centres unmarked) [Compound 69, 2-([1,4]dioxan-2-ylmethoxy)-9-(2-ethoxy-pyridin-3-yl)-6,7-dihydro-pyrimido[6,1-a]isoquinolin-4-one], the IC50 in test [1] and in test [2] was 0.01 to 100 nM each time.
With `CC(C)(C)OCc1ccc2c(c1)CCn1c-2cc(OCC2COCCO2)nc1=O` (centres unmarked) [Compound 72, 9-tert-butoxymethyl-2-([1,4]dioxan-2-ylmethoxy)-6,7-dihydro-pyrimido[6,1-a]isoquinolin-4-one], the IC50 in test [1] and in test [2] was 0.01 to 100 nM each time.
With `O=c1nc(OCC2COCCO2)cc2n1CCc1cc(OCc3noc(C4CC4)n3)ccc1-2` (centres unmarked) [Compound 77, 9-(5-cyclopropyl-[1,2,4]oxadiazol-3-ylmethoxy)-2-([1,4]dioxan-2-ylmethoxy)-6,7-dihydro-pyrimido[6,1-a]isoquinolin-4-one], the IC50 in test [1] and in test [2] was 0.01 to 100 nM each time.
As for `CC(C)c1nc(COc2ccc3c(c2)CCn2c-3cc(OCC3COCCO3)nc2=O)no1` (centres unmarked) [Compound 80, 2-([1,4]dioxan-2-ylmethoxy)-9-(5-isopropyl-[1,2,4]oxadiazol-3-ylmethoxy)-6,7-dihydro-pyrimido[6,1-a]isoquinolin-4-one], the IC50 in test [1] and in test [2] was 0.01 to 100 nM each time.
Take `CC(C)C#Cc1ccc2c(c1)CCn1c-2cc(OCC2COCCO2)nc1=O` (centres unmarked) [Compound 83, 2-([1,4]dioxan-2-ylmethoxy)-9-(3-methyl-but-1-ynyl)-6,7-dihydro-pyrimido[6,1-a]isoquinolin-4-one]: the IC50 in test [1] and in test [2] was 0.01 to 100 nM each time.
`CCC(O)C#Cc1ccc2c(c1)CCn1c-2cc(OCC2COCCO2)nc1=O` (centres unmarked) [Compound 89, 2-([1,4]dioxan-2-ylmethoxy)-9-(3-hydroxy-pent-1-ynyl)-6,7-dihydro-pyrimido[6,1-a]isoquinolin-4-one]: the IC50 in test [1] lay in the range of 101 to 500 nM; in test [2], 0.01 to 100 nM.
On to `CC(C)C(O)C#Cc1ccc2c(c1)CCn1c-2cc(OCC2COCCO2)nc1=O` (centres unmarked) [Compound 90, 2-([1,4]Dioxan-2-ylmethoxy)-9-(3-hydroxy-4-methyl-pent-1-ynyl)-6,7-dihydro-pyrimido[6,1-a]isoquinolin-4-one], for which the IC50 in test [1] and in test [2] was 0.01 to 100 nM each time.
Turning to `CCCC(O)C#Cc1ccc2c(c1)CCn1c-2cc(OCC2COCCO2)nc1=O` (centres unmarked) [Compound 98, 2-([1,4]dioxan-2-ylmethoxy)-9-(3-hydroxy-hex-1-ynyl)-6,7-dihydro-pyrimido[6,1-a]isoquinolin-4-one], the IC50 in test [1] and in test [2] was 0.01 to 100 nM each time.
As to `O=c1nc(OCC2COCCO2)cc2n1CCc1cc(C#CCNc3ccccc3)ccc1-2` (centres unmarked) [Compound 107, 2-([1,4]dioxan-2-ylmethoxy)-9-(3-phenylamino-prop-1-ynyl)-6,7-dihydro-pyrimido[6,1-a]isoquinolin-4-one], the IC50 in test [1] and in test [2] was 0.01 to 100 nM each time.
Regarding `CC(C)C#Cc1ccc2c(c1)CCn1c-2cc(OC[C@@H]2COCCO2)nc1=O` [Compound 112, 2-((S)-1-[1,4]dioxan-2-ylmethoxy)-9-(3-methyl-but-1-ynyl)-6,7-dihydro-pyrimido[6,1-a]isoquinolin-4-one], the IC50 in test [1] and in test [2] was 0.01 to 100 nM in each case.
On to `O=c1nc(OC[C@H]2COCCO2)cc2n1CCc1cc(CCC3CC3)ccc1-2` [Compound 114, 9-(2-cyclopropyl-ethyl)-2-((R)-1-[1,4]dioxan-2-ylmethoxy)-6,7-dihydro-pyrimido[6,1-a]isoquinolin-4-one], for which the IC50 in test [1] and in test [2] was 0.01 to 100 nM in each case.
Take `O=c1nc(OCC2COCCO2)cc2n1CCc1cc(CCC(O)c3cccnc3)ccc1-2` (centres unmarked) [Compound 116, 2-([1,4]dioxan-2-ylmethoxy)-9-(3-hydroxy-3-pyridin-3-yl-propyl)-6,7-dihydro-pyrimido[6,1-a]isoquinolin-4-one]: the values for the IC50 in test [1] and in test [2] were 101 to 500 nM and 0.01 to 100 nM, respectively.
On the same counts, the results for `CCCCCc1ccc2c(c1)CCn1c-2cc(OC[C@H]2COCCO2)nc1=O` [Compound 121, 2-((R)-1-[1,4]dioxan-2-ylmethoxy)-9-pentyl-6,7-dihydro-pyrimido[6,1-a]isoquinolin-4-one] are 0.01 to 100 nM and 101 to 500 nM.
On the same counts, the results for `O=c1nc(OC[C@@H]2COCCO2)cc2n1CCc1cc(CCC3CC3)ccc1-2` [Compound 123, 9-(2-cyclopropyl-ethyl)-2-((S)-1-[1,4]dioxan-2-ylmethoxy)-6,7-dihydropyrimido[6,1-a]isoquinolin-4-one] are 0.01 to 100 nM and 0.01 to 100 nM.
Take `CCC(C)(C)CNc1ccc2c(c1)CCn1c-2cc(OC[C@@H]2COCCO2)nc1=O` [Compound 126, 9-(2,2-dimethyl-butylamino)-2-((S)-1-[1,4]dioxan-2-ylmethoxy)-6,7-dihydro-pyrimido[6,1-a]isoquinolin-4-one]: the IC50 in test [1] and in test [2] was 0.01 to 100 nM each time.
As to `COCCOCC#Cc1ccc2c(c1)CCn1c-2cc(OC[C@@H]2COCCO2)nc1=O` [Compound 133, 2-((S)-1-[1,4]dioxan-2-ylmethoxy)-9-[3-(2-methoxy-ethoxy)-prop-1-ynyl]-6,7-dihydro-pyrimido[6,1-a]isoquinolin-4-one], the IC50 was in the range of 101 to 500 nM in test [1] and 0.01 to 100 nM in test [2].
As to `O=c1nc(OC[C@@H]2COCCO2)cc2n1CCc1cc(OCC3CCCCO3)ccc1-2` (stereo partly drawn) [Compound 139, 2-((S)-1-[1,4]dioxan-2-ylmethoxy)-9-(tetrahydro-pyran-2-ylmethoxy)-6,7-dihydro-pyrimido[6,1-a]isoquinolin-4-one], the IC50 in test [1] and in test [2] was 0.01 to 100 nM in each case.
Regarding `CC(O)CCc1ccc2c(c1)CCn1c-2cc(OC[C@@H]2COCCO2)nc1=O` (stereo partly drawn) [Compound 140, 2-((S)-1-[1,4]dioxan-2-ylmethoxy)-9-(3-hydroxy-butyl)-6,7-dihydro-pyrimido[6,1-a]isoquinolin-4-one], the IC50 was in the range of 101 to 500 nM in test [1] and 0.01 to 100 nM in test [2].
As to `O=c1nc(OC[C@@H]2COCCO2)cc2n1CCc1cc(COCC3CCCC3)ccc1-2` [Compound 147, 9-cyclopentylmethoxymethyl-2-((S)-1-[1,4]dioxan-2-ylmethoxy)-6,7-dihydro-pyrimido[6,1-a]isoquinolin-4-one], the IC50 in test [1] and in test [2] was 0.01 to 100 nM throughout.
